# Measurements as given in patent US9028845B2, “Chimeric immunomodulatory compounds and methods of using the same-IV” (Dynavax Technologies Corporation, priority 2001, dated 2015).
# Strand notation (5' to 3'): a small letter for the sugar, then the base; units joined by * are phosphorothioate-linked, units joined directly phosphodiester-linked; [ ] holds rarer units or linkages, { } end groups; capitals alone tell only the bases. d = 2'-deoxy (DNA)
# Tested on: mouse splenocytes
# Experiment: Mouse splenocyte cytokine secretion (IL-6, IL-12, IFN by ELISA)
# Format: cell-based, BALB/c mice
# Parameters: IFN: unit not given beside the values
# Conditions: 24 h
# Method: Polynucleotides and chimeric compounds were tested for immunostimulatory activity on mouse splenocytes. Immunostimulation was assessed by measurement of cytokine secretion into the culture media. Cytokine levels in the culture supernatant were determined by enzyme-linked immunosorbent assay (ELISA) tests.
# Cells were isolated and prepared using standard techniques. Spleens of 8 to 20 week-old BALB/c mice were harvested and the splenocytes isolated using standard teasing and treatment with ACK lysing buffer from BioWhittaker, Inc. Four spleens were pooled in this experiment. Isolated cells were washed in RPMI 1640 media supplemented with 2% heat-inactivated fetal calf serum (FCS), 50 μM 2-mercaptoethanol, 1% penicillin-streptomycin, and 2 mM L-glutamine and resuspended at approximately […] in 10% FCS/RPMI (RPMI 1640 media with 10% heat-inactivated FCS, 50 μM 2-mercaptoethanol, 1% penicillin-streptomycin, and 2 mM L-glutamine).
# Cell cultures were set up in triplicate with approximately 7×10^5 cells/well in a 96-well flat microtiter plate in 100 μl 10% FCS/RPMI with the cells allowed to rest for at lest 1 hour after plating. The indicated test compounds were incubated (at the indicated concentrations) for 24 hours at 37° C. Cell supernatants were harvested and frozen at −80° C. Cytokine production by the cells was determined by ELISAs, as shown in 19.
substance,measurement,setting,value
"5′-TGACTGTGAACCTTAGAGATGA-3′ (SEQ ID NO: 3) (dT*dG*dA*dC*dT*dG*dT*dG*dA*dA*dC*dC*dT*dT*dA*dG*dA*dG*dA*dT*dG*dA) [Compound P-7, negative control, reference compound]",IFN,dose 1.0 μg/ml,30
same,IL-6,dose 1.0 μg/ml,7
same,IL-12,dose 1.0 μg/ml,143
same,IFN,dose 5.0 μg/ml,23
same,IL-6,dose 5.0 μg/ml,9
same,IL-12,dose 5.0 μg/ml,177
